Laboratory results taken from US4886821A, “2-pyridinecarbothioamides and pharmaceutical compositions comprising the same useful as anti ulcer agents” (American Home Products Corporation, priority 1987, dated 1989).

What was measured:
[1] = test system: gastric mucosal lesions produced by ethanol; assay: Ethanol induced cytotoxicity (gastric mucosal lesions) in rats; assay type: in vivo, Male Sprague-Dawley rats; conditions: for % Inhibition: oral, inhibition of lesion formation vs control; for ED50: Rattus norvegicus, po
Method: The purpose of this assay is to evaluate the effectiveness of the compounds of the present invention in preventing the formation of gastric mucosal lesions produced by ethanol. The assay is based on A. Robert, et al: Gastroenterology, 77: 433-443, 1979.
Male Sprague-Dawley rats weighing between 120-150 grams were fasted for 24 hours prior to the experiment (water ad libitum). At least two hours before dosing, the animals were placed in individual cages with wire grid bottoms and denied access to water.
Ethanol was administered orally at 1 mL per animal. The compounds of the present invention were dissolved in water or suspended in water with 0.5% carboxymethylcellulose and administered orally at a dose based on an appropriate standard giving ED50 to ED75 response of cytoprotective activity.
The rats were randomly divided into groups of equal number, ordinarily 10 to a group. The rats were weighed and the individual weights were recorded. Exactly 1 hour (4 hours in the case of Example 5) prior to the administration of ethanol, the screening group was treated with the compounds of the present invention, and the control group with the vehicle. One hour after administering the ethanol the animals were sacrificed by cervical dislocation. The stomachs were removed, cut along the greater curvature and cleansed of all debris with tap water. The stomachs were set aside and kept moist with saline until the lesions were scored.
Macroscopic lesions on the gastric mucosa were numerically graded. The final grade assigned a stomach was the sum of all the grades.
Streaks longer than 6 mm are graded in multiples of 2 mm.
The degree of cytotoxicity occuring in each group is represented as the mean±S.E.M.
The mean of each treatment group was compared to the control group and expressed as the % inhibition of lesion formation.

ethanol induced ulcer = conditions: Robert et al., Scand. J. Gastroenterol. 1984; cited from earlier work
stress induced ulcers = assay: Stress-induced gastric ulcers in rats; assay type: in vivo, Male rats; conditions: Rattus norvegicus, po; orally or parenterally, usually 15 to 45 minutes prior to stress; restraint at 4-5 °C for 3 hours, sodium taurocholate p.o.; read-out: Stress Induced Ulcer ED50
Method: The purpose of this assay is to evaluate the effectiveness of the compounds of the present invention in preventing stress induced ulcers.
Male rats (280-380 g) were fasted for 18 hours (water available ad libitum) prior to use in experiments. Eight to twelve rats were used per group.
Drug solutions or suspensions were prepared in physiological saline solution. Suspensions were prepared with the aid of 0.5% carboxymethylcellulose in physiological saline solution. Drugs were administered orally or parenterally at predetermined intervals (usually 15 to 45 minutes) prior to stress.
This test procedure is according to the method of Senay et al., Proc. Soc. Exp. Biol. Med. 124, 1221 (1967), modified to produce a more consistent ulcer incidence. After drug administration, the rats were immobilized in metallic restrainers and placed in a cold room at 4°-5° C. for 3 hours before they were killed by cervical dislocation. Each rat was given 20 mg of sodium taurocholate p.o. immediately before placing it in the restrainer. After killing the rats, the stomachs were excised and examined. Macroscopic ulcers were subjectively assigned a grade from 1 to 3 on the basis of increasing size. The number of ulcers in each size category was determined and multiplied by the respective grade; the addition of the resultant values gave the cumulative ulcer score. The average cumulative ulcer score of each treatment group was compared to that of the control group and the percent inhibition of ulcer formation as calculated. When the responses obtained were directly proportional to the doses employed, ED50 values were determined from the dose-response curves obtained.

[2] = 10 mg/kg, 1 hour prior to ethanol

For `CN(C(=S)c1ccccn1)c1cccc(F)c1` [Example 6, N-(3-Fluorophenyl)-N-methyl-2-pyridinecarbothioamide], the “% Inhibition” value [1, 2] was 31%.
In the case of `CN/C(=N/CCSCc1nc[nH]c1C)NC#N` [cimetidine], the “protection in ethanol induced ulcer model” value (ethanol induced ulcer) is given as “do not protect in this model”.
In the case of `CC(C)[N+](C)(CCOC(=O)C1c2ccccc2Oc2ccccc21)C(C)C` [propantheline bromide], the “protection in ethanol induced ulcer model” value (ethanol induced ulcer) is listed as “do not protect in this model”.
For `Fc1ccc(F)c(NC(=S)c2ccccn2)c1` [Example 12, N--(2,5-difluorophenyl)-2-pyridinecarbothioamide], the ED50 [1] was 6.2 mg/kg.
For `CN(C(=S)c1ccccn1)c1cc(F)cc(F)c1` [Example 7, N-(3,5-Difluorophenyl)-N-methyl-2-pyridinecarbothioamide], the “% Inhibition” value ([1]; 25 mg/kg, 1 hour prior to ethanol) was 40%.
In the case of `Fc1ccc(NC(=S)c2ccccn2)c(F)c1` [Example 2, N-(2,4-Difluorophenyl)-2-pyridinecarbothioamide], the ED50 [1] is reported as 4.8 mg/kg and the ED50 (stress induced ulcers) is reported as 38 mg/kg.
In the case of `Fc1ccccc1NC(=S)c1ccccn1` [Example 5, N-(2-Fluorophenyl)-2-pyridinecarbothioamide], the “% Inhibition” value ([1]; 100 mg/kg, 4 hours prior to ethanol) is reported as 69%.
`Fc1cccc(NC(=S)c2ccccn2)c1` [Example 4, N-(3-Fluorophenyl)-2-pyridinecarbothioamide] gave an ED50 [1] of 1 mg/kg.
Molecule `Fc1cccc(F)c1NC(=S)c1ccccn1` [Example 9, N-(2,6-Difluorophenyl)-2-pyridinecarbothioamide] has an ED50 [1] of 0.38 mg/kg and an ED50 (stress induced ulcers) of 1.8 mg/kg.
In the case of `CCN(C(=S)c1ccccn1)c1cc(F)cc(F)c1` [Example 8, N-(3,5-Difluorophenyl)-N-ethyl-2-pyridinecarbothioamide], the “% Inhibition” value [1, 2] is reported as 13%.
Work on `Fc1cccc(NC(=S)c2ccccn2)c1F` [Example 10, N--(2,3-difluorophenyl)-2-pyridinecarbothioamide] yielded an ED50 [1] of 1 mg/kg and an ED50 (stress induced ulcers) of 0.9 mg/kg.
Work on `Fc1ccc(NC(=S)c2ccccn2)cc1` [Example 3, N-(4-Fluorophenyl)-2-pyridinecarbothioamide] yielded an ED50 [1] of 2.5 mg/kg and an ED50 (stress induced ulcers) of 3.8 mg/kg.
